We go through 20 compounds from US7186743B2, “Substituted pyrazolyl compounds for the treatment of inflammation” (Pharmacia Corporation, priority 2001, dated 2007).

For one series, the target named is T1, IKK2 (Homo sapiens, UniProt O14920).
T1 construct: made in house; host or cells: insect cells (baculovirus, pFastBac; SF9)
T1 sequence (O14920 1-756): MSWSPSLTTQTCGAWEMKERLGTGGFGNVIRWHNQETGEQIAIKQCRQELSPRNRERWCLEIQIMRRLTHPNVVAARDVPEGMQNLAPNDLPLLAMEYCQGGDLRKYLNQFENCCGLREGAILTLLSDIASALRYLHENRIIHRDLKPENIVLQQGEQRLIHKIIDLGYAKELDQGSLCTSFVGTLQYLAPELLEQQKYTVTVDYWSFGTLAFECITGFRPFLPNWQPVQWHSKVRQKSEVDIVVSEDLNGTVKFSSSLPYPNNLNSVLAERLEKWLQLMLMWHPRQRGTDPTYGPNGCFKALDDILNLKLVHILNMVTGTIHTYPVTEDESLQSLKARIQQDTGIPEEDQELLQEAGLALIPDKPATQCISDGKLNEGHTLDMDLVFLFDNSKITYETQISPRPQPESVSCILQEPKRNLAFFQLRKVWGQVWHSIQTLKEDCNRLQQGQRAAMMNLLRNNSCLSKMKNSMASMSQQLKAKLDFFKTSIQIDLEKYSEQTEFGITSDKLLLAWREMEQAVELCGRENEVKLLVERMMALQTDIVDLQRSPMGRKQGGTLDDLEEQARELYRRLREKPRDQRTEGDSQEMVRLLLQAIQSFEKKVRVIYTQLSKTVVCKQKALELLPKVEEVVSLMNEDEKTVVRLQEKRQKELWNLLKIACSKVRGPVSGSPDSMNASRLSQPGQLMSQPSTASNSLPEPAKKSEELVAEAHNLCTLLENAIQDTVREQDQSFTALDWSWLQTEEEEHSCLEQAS
The experiment in a line: IKKβ Resin Enzyme Assay (IKK2 resin). It counts as biochemical. In outline: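 Enzyme: human IKK2 with a C-terminal FLAG tag, baculovirus-expressed, purified as homodimer on anti-FLAG resin. It phosphorylates a biotinylated IκBα peptide with 1 μM ATP plus [γ-33P]ATP in 25 mM Hepes pH 7.6, Mg/Mn, for 30 min at 25° C. Incorporation is counted by scintillation after anion-exchange resin stop.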

Setting [1] is: Table 7, read-out: IKK2 Resin IC50.
Where [2] appears, read: Table 5, read-out: IKK2 Resin Avg. IC50.
Where [3] appears, read: Table 4, read-out: IKK2 Resin IC50.

Where a name gives a salt, the structure may show the parent alone. Read-outs that look alike come from different tables or passages of the source. Bounds are passed on as bounds.

Turning to `NC(=O)c1nn(-c2ccc3c(c2)OCO3)c2c1CCc1ccc(NC(=O)c3nc(Cl)ccc3Cl)cc1-2` [Example 216, 1-(1,3-benzodioxol-5-yl)-8-{[(3,6-dichloropyridin-2-yl)carbonyl]amino}-4,5-dihydro-1H-benzo[g]indazole-3-carboxamide], the melting point (commonly the temperature, or range, at which the solid turns liquid) was 263 to 265 °C.

As for `NC(=O)c1nn(-c2ccc(F)cc2)c2c1CCc1ccc(NC(=O)c3nc(N4CCOCC4)ccc3Cl)cc1-2` [Example 255, 8-{[(3-chloro-6-morpholin-4-ylpyridin-2-yl)carbonyl]amino}-1-(4-fluorophenyl)-4,5-dihydro-1H-benzo[g]indazole-3-carboxamide], the melting point was 252 to 254 °C. Besides, the half-inhibitory concentration (IC50) (as a rule, the concentration that gives 50% inhibition) at IKK2 (setting [1]) is at most 1 µM.

The compound `NC(=O)c1nn(-c2ccc3c(c2)OCO3)c2c1CCc1ccc(NC(=O)c3cccnc3N)cc1-2` [Example 210, 8-{[(2-aminopyridin-3-yl)carbonyl]amino}-1-(1,3-benzodioxol-5-yl)-4,5-dihydro-1H-benzo[g]indazole-3-carboxamide] had a melting point of 265 to 267 °C.

Take `CNc1ncccc1C(=O)Nc1ccc2c(c1)-c1c(c(C(N)=O)nn1-c1ccc3c(c1)OCO3)CC2` [Example 207, 1-(1,3-benzodioxol-5-yl)-8-({[2-(methylamino)pyridin-3-yl]carbonyl}amino)-4,5-dihydro-1H-benzo[g]indazole-3-carboxamide]: the melting point lay in the range of 273 to 275 °C. For the same compound, the half-maximal inhibitory concentration (IC50) on IKK2 (setting [2]) is at most 1 µM.

Turning to `NC(=O)c1nn(-c2ccc(F)cc2)c2c1CCc1ccc(NC(=O)c3cccnc3N3CCNCC3)cc1-2` [Example 245, 1-(4-fluorophenyl)-8-{[(2-piperazin-1-ylpyridin-3-yl)carbonyl]amino}-4,5-dihydro-1H-benzo[g]indazole-3-carboxamide], the melting point is 156 to 157 °C. Moreover, on IKK2 (setting [1]), the 50% inhibitory concentration (IC50) was at most 1 µM.

As for `NC(=O)c1nn(-c2ccc3c(c2)OCO3)c2c1CCc1ccc(NC(=O)c3cc(N4CCOCC4)ncc3Cl)cc1-2` [Example 212, 1-(1,3-benzodioxol-5-yl)-8-[(5-chloro-2-morpholin-4-ylisonicotinoyl)amino]-4,5-dihydro-1H-benzo[g]indazole-3-carboxamide], the melting point was 269 to 271 °C. Further, the IC50 on IKK2 (setting [2]) was at most 1 µM.

Consider `CNc1ccc(Cl)c(C(=O)Nc2ccc3c(c2)-c2c(c(C(N)=O)nn2-c2ccc4c(c2)OCO4)CC3)n1` [Example 220, 1-(1,3-benzodioxol-5-yl)-8-({[3-chloro-6-(methylamino)pyridin-2-yl]carbonyl}amino)-4,5-dihydro-1H-benzo[g]indazole-3-carboxamide], for which the melting point was 269 to 270 °C (dec.). At IKK2 (setting [2]), the IC50 is at most 1 µM.

`NC(=O)c1nn(-c2ccc3c(c2)OCO3)c2c1CCc1ccc(NC(=O)c3cccnc3Cl)cc1-2` [Example 161, 1-(1,3-benzodioxol-5-yl)-8-{[(2-chloropyridin-3-yl)carbonyl]amino}-4,5-dihydro-1H-benzo[g]indazole-3-carboxamide] returned a melting point of 165 to 166 °C. At IKK2 (setting [3]), the half-inhibitory concentration (IC50) is at most 1 µM.

`NC(=O)c1nn(-c2ccc3c(c2)OCO3)c2c1CCc1ccc(NC(=O)c3cc(Cl)ncc3Cl)cc1-2` [Example 211, 1-(1,3-benzodioxol-5-yl)-8-[(2,5-dichloroisonicotinoyl)amino]-4,5-dihydro-1H-benzo[g]indazole-3-carboxamide] yielded a melting point of 292 to 293 °C.

As for `CN1CCN(c2cc(C(=O)Nc3ccc4c(c3)-c3c(c(C(N)=O)nn3-c3ccc5c(c3)OCO5)CC4)c(Cl)cn2)CC1` [Example 214, 1-(1,3-benzodioxol-5-yl)-8-{[5-chloro-2-(4-methylpiperazin-1-yl)isonicotinoyl]amino}-4,5-dihydro-1H-benzo[g]indazole-3-carboxamide], the melting point fell in the range of 305 to 307 °C.

As for `CN1CCN(c2ccc(Cl)c(C(=O)Nc3ccc4c(c3)-c3c(c(C(N)=O)nn3-c3ccc5c(c3)OCO5)CC4)n2)CC1` (as salt: salt) [Example 217, 1-(1,3-benzodioxol-5-yl)-8-({[3-chloro-6-(4-methylpiperazin-1-yl)pyridin-2-yl]carbonyl}amino)-4,5-dihydro-1H-benzo[g]indazole-3-carboxamide], the melting point was 264 to 266 °C (dec.).

For the compound `CN1CCN(c2ccc(Cl)c(C(=O)Nc3ccc4c(c3)-c3c(c(C(N)=O)nn3-c3ccc(F)cc3)CC4)n2)CC1` (as salt: salt) [Example 256, 8-({[3-chloro-6-(4-methylpiperazin-1-yl)pyridin-2-yl]carbonyl}amino)-1-(4-fluorophenyl)-4,5-dihydro-1H-benzo[g]indazole-3-carboxamide], the melting point is 218 to 220 °C.

As to `NC(=O)c1nn(-c2ccc(F)cc2)c2c1CCc1ccc(NC(=O)CNC3CCC3)cc1-2` [Example 452, 8-[(N-cyclobutylglycyl)amino]-1-(4-fluorophenyl)-4,5-dihydro-1H-benzo[g]indazole-3-carboxamide], the IC50 on IKK2 (Table 23, read-out: IKK2 Resin IC50) was at most 1 µM.

Regarding `C#CCN(CC#C)S(=O)(=O)c1ccc(-n2nc(C(N)=O)c3c2-c2cc(N)ccc2CC3)cc1` [Example 425, 8-amino-1-{4-[(diprop-2-ynylamino)sulfonyl]phenyl}-4,5-dihydro-1H-benzo[g]indazole-3-carboxamide], the IC50 on IKK2 (Table 21, read-out: IKK2 Resin IC50) was at most 1 µM.

For `COc1ccc(CNc2ncccc2C(=O)Nc2ccc3c(c2)-c2c(c(C(N)=O)nn2-c2ccc4c(c2)OCO4)CC3)cc1` [Example 209, 1-(1,3-benzodioxol-5-yl)-8-[({2-[(4-methoxybenzyl)amino]pyridin-3-yl}carbonyl)amino]-4,5-dihydro-1H-benzo[g]indazole-3-carboxamide], the melting point lay within 181 to 182 °C.

Regarding `CS(=O)(=O)c1ccc(-n2nc(C(N)=O)c3c2-c2cc(NC(=O)c4ccccc4F)ccc2CC3)cc1` [Example 97, 8-[(2-fluorobenzoyl)amino]-1-[4-(methylsulfonyl)phenyl]-4,5-dihydro-1H-benzo[g]indazole-3-carboxamide], on IKK2 (Table 2, read-out: IKK Resin IC50), the IC50 is at most 1 µM.

Regarding `NC(=O)c1nn(-c2ccc(F)c(F)c2)c2c1CCc1ccc(NC(=O)c3ccncc3Cl)cc1-2` [Example 354, 8-[(3-chloroisonicotinoyl)amino]-1-(3,4-difluorophenyl)-4,5-dihydro-1H-benzo[g]indazole-3-carboxamide], the half-inhibitory concentration (IC50) at IKK2 (Table 14, read-out: IKK2 Resin IC50) was at most 1 µM.

Regarding `NC(=O)c1nn(-c2ccc3c(c2)OCO3)c2c1CCc1ccc(NC(=O)c3cc([N+](=O)[O-])ccc3Cl)cc1-2` [Example 173, 1-(1,3-benzodioxol-5-yl)-8-[(2-chloro-5-nitrobenzoyl)amino]-4,5-dihydro-1H-benzo[g]indazole-3-carboxamide], the IC50 on IKK2 (setting [3]) is at most 1 µM.

`NC(=O)c1nn(-c2ccc(OCc3ccccc3)cc2)c2c1CCc1ccc(NC(=O)c3ccccc3Cl)cc1-2` [Example 259, 1-[4-(benzyloxy)phenyl]-8-[(2-chlorobenzoyl)amino]-4,5-dihydro-1H-benzo[g]indazole-3-carboxamide]: the half-inhibitory concentration (IC50) on IKK2 (Table 8, read-out: IKK2 Resin IC50) was above 10 µM.

Regarding `NC(=O)c1nn(-c2cccc(O)c2)c2c1CCc1ccc(NC(=O)c3cc4c(cc3Cl)OCO4)cc1-2` [Example 277, 8-{[(6-chloro-1,3-benzodioxol-5-yl)carbonyl]amino}-1-(3-hydroxyphenyl)-4,5-dihydro-1H-benzo[g]indazole-3-carboxamide], the IC50 on IKK2 (Table 10, read-out: IKK2 Resin IC50) is at most 1 µM.
